Laboratory results reported in article PMC7415757, “Monocrotaline-induced liver toxicity in rat predicted by a combined in vitro physiologically based kinetic modeling approach” (Archives of Toxicology, 2020).
Like-named read-outs stand apart in the source and are kept apart here.

Key:
[1] = Substrate depletion in incubations with pooled rat liver microsomes; type: in vitro ADME, rat (Sprague–Dawley)
Procedure: After 5 min of pre-incubation in a shaking water bath at 37 °C, the reactions were started by the addition of 1 mM NADPH. The reactions were carried out for 1 h and 2 h for liver and intestinal microsomes, respectively. For each incubation, a corresponding control incubated in the absence of NADPH was included by adding buffer instead of NADPH. To stop the metabolic conversion, 100 µl of ice-cold methanol was added and the sample was put on ice, then centrifuged at 5000 × g for 20 min at 4 °C using a microcentrifuge (CT15RE, VWR, Leuven, Belgium). Supernatants were diluted 200 times in 90% (v/v) acetonitrile and transferred to LC–MS vials. LC–MS analysis was performed using a Shimadzu Nexera XR LC-20AD SR UPLC system in tandem with a Shimadzu LCMS-8040 mass spectrometer (Shimadzu, Kyoto, Japan). From each incubation, 1 µl of supernatant was loaded onto a Luna Omega polar C18 100A LC column (1.6 µm 100 × 2.1 mm, Phenomenex) fitted with a FP polar precolumn (Phenomenex), using a flow rate of 0.3 ml/min. The temperature was set at 40 °C and 5 °C for column and sample, respectively. The mobile phase consisted of ultrapure water (solvent A) and acetonitrile (solvent B) both containing 0.1% (v/v) formic acid. The gradient began with 100% solvent A (0% B) for 1 min to wash away unwanted salts, followed by a linear gradient from 0 to 5% B till 8 min and a further increase to 100% B in 2 min, keeping the elution at 100% B for 0.5 min, then the column was set back to the starting conditions and equlibrated for 3.4 min before the next injection. […] For all incubations, three independent replicates were performed.
The ratio of Vmax and Km was calculated as the in vitro catalytic efficiency (kcat) expressed in […]. […] The rat liver weight of 8.5 g and small intestine weight of 3.5 g (see Table 1) (Brown et al. [1997]) were used to scaled the in vivo kcat values to values expressed in ml/min/tissue.

[2] = tested on: primary rat hepatocytes; test: Uptake of monocrotaline into primary rat hepatocytes (Tu et al. 2013); type: cell-based; settings: scaled with 120 mg protein/g liver and 34 g liver/kg bw from Tu et al. ([2013])
[3] = tested on: HepaRG cells; design: method as in Louisse et al. ([2019]); settings: 24 h exposure; ref Louisse et al. ([2019]); cited from earlier work
[4] = design: method as in IARC [2019]; settings: possibly carcinogenic in humans; ref IARC [2019]; cited from earlier work
[5] = design: method as in Estep et al. 1991; settings: rat, iv 60 mg/kg bw, ref Estep et al. 1991, cited from earlier work
[6] = tested on: human liver cell line HepaRG; settings: in vitro γH2AX induction potency, ref Louisse et al. ([2019]); cited from earlier work
[7] = design: method as in Lester et al. ([2019]); settings: ref Lester et al. ([2019]); cited from earlier work
[8] = tested on: DNA adducts; design: method as in Xia et al. ([2013]); settings: moderate tumour formation; ref Xia et al. ([2013]); cited from earlier work
[9] = liver, 35 mg microsomal protein/g liver, present study

C[C@H]1C(=O)O[C@@H]2CCN3CC=C(COC(=O)[C@](C)(O)[C@]1(C)O)[C@H]23 [Monocrotaline]
Km ([1]; Sprague-Dawley, rat, pH 7.4, liver, present study): 9.2 µM
scaled liver kcat, times lower than lasiocarpine ([1]; liver): 41.8 times
scaled liver kcat, times lower than riddelliine ([1]; liver): 4.3 times
Scaled kcat ([1]; liver weight 8.5 g, present study): 1.9 ml/min/ tissue
Scaled Vmax [1, 9]: 2.1 nmol/min/g tissue
Scaled kcat [1, 9]: 0.2 ml/min/g tissue
KmLM1, affinity constant ([1]; liver, PBK model code): 9.22 µmol/L
VmaxLM1c, unscaled maximum rate of metabolism ([1]; liver, PBK model code): 0.06 nmol/min-1/mg protein
Vmax ([1]; liver, present study): 0.06 nmol/min/mg microsomal protein
rate for uptake in the liver of rats, scaled [2]: 3.55 µmol/h/kg bw
cytotoxicity in HepaRG cells [3]: did not exhibit cytotoxicity
IARC carcinogenicity category [4]: 2B
Reported concentration of monocrotaline equivalents, RBCs ([5]; 5 min): 144.00 µM
Reported concentration of monocrotaline equivalents, plasma ([5]; 5 min): 113.00 µM
Reported concentration of monocrotaline equivalents, RBCs ([5]; 15 min): 113.46 µM
Reported concentration of monocrotaline equivalents, plasma ([5]; 15 min): 81.88 µM
Reported concentration of monocrotaline equivalents, RBCs ([5]; 30 min): 100.06 µM
Reported concentration of monocrotaline equivalents, plasma ([5]; 30 min): 67.35 µM
Reported concentration of monocrotaline equivalents, RBCs ([5]; 60 min): 100.13 µM
Reported concentration of monocrotaline equivalents, plasma ([5]; 60 min): 49.84 µM
Reported concentration of monocrotaline equivalents, RBCs ([5]; 120 min): 104.89 µM
Reported concentration of monocrotaline equivalents, plasma ([5]; 120 min): 29.65 µM
Reported concentration of monocrotaline equivalents, RBCs ([5]; 180 min): 99.93 µM
Reported concentration of monocrotaline equivalents, plasma ([5]; 180 min): 21.82 µM
Reported concentration of monocrotaline equivalents, RBCs ([5]; 240 min): 99.60 µM
Reported concentration of monocrotaline equivalents, plasma ([5]; 240 min): 17.11 µM
Reported concentration of monocrotaline equivalents, RBCs ([5]; 300 min): 79.81 µM
Reported concentration of monocrotaline equivalents, plasma ([5]; 300 min): 13.07 µM
Reported concentration of monocrotaline equivalents, RBCs ([5]; 360 min): 85.50 µM
Reported concentration of monocrotaline equivalents, plasma ([5]; 360 min): 12.16 µM
Reported concentration of monocrotaline equivalents, RBCs ([5]; 420 min): 81.00 µM
Reported concentration of monocrotaline equivalents, plasma ([5]; 420 min): 11.00 µM
potency group [6]: group 3
metabolic stability [7]: metabolically stable
ranking based on the formation of DNA adducts [8]: group II
